Assays:
Type in all cases: functional, cell-based
NB-4 = experiment: Cytotoxicity against human NB4 cells after 48 hrs by WST-8 assay; conditions: NB-4, 48 h
PC-3 = experiment: Cytotoxicity against human PC3 cells after 48 hrs by WST-8 assay; conditions: PC-3, 48 h
A549 = experiment: Cytotoxicity against human A549 cells after 48 hrs by WST-8 assay; conditions: A549, 48 h
SH-SY5Y = experiment: Cytotoxicity against human SH-SY5Y cells after 48 hrs by WST-8 assay
MCF7 = experiment: Cytotoxicity against human MCF7 cells after 48 hrs by WST-8 assay; conditions: MCF7, 48 h

SMILES	IC50 (NB-4) [µM]	IC50 (PC-3) [µM]	IC50 (A549) [µM]	IC50 (SH-SY5Y) [µM]	IC50 (MCF7) [µM]
CC(=O)CC[C@H]1C(=O)[C@@]23[C@H](O)C[C@@H]4[C@@](C)(CO)CCC[C@@]4(C)[C@@H]2C(=O)[C@H](O)[C@H]1[C@H]3O	> 10	> 10	> 10	> 10	> 10
COc1cc([C@@H]2c3cc4c(cc3[C@@H](O[C@@H]3O[C@@H]5CO[C@@H](C)O[C@H]5[C@H](O)[C@H]3O)[C@H]3COC(=O)[C@H]23)OCO4)cc(OC)c1O [ETOPOSIDE]	1.3	13.6	1.7	1.7	
C=C1C(=O)[C@@]23[C@H](O)C[C@@H]4C(C)(C)CC[C@H](O)[C@@]4(C)[C@@H]2C[C@H](O)[C@@H]1[C@H]3O [EXCISANIN A]	8.2	> 10	> 10	> 10	> 10
C=C1C(=O)[C@@]23CC[C@@H]4[C@@](C)(CO)CC[C@H](O)[C@@]4(C)[C@@H]2CC[C@@H]1[C@H]3O [EXCISANIN K]	8.7	> 10	> 10	> 10	> 10
C=C1C(=O)[C@@]23[C@H](O)C[C@@H]4[C@@](C)(CO)CCC[C@@]4(C)[C@@H]2C(=O)C[C@@H]1[C@H]3O [HENRYINE A]	2.3	7	> 10	5.1	> 10
CC1(C)CCC[C@]2(C)[C@@H]1C[C@@H](O)[C@@]13C(=O)[C@@]4(CO4)[C@@H]([C@H]1O)[C@@H](O)C(=O)[C@@H]23 [ISOSCOPARIN D]	> 10	> 10	> 10	> 10	> 10
C=C1[C@@H]2[C@@H](O)[C@H](O)[C@H]3[C@]4(C)CCCC(C)(C)[C@H]4CC(=O)[C@@]3([C@@H]1OC(C)=O)[C@@H]2O [ISOSCOPARIN F]	2.2	> 10	9.9	9.2	3.9
C=C1[C@@H](O)[C@@]23[C@H](O)C[C@@H]4[C@@](C)(CO)CCC[C@@]4(C)[C@@H]2C(=O)C[C@@H]1[C@H]3O [ISOSCOPARIN H]	> 10	> 10	> 10	> 10	> 10
C=C1C(=O)[C@@]23[C@H](O)C[C@H]4[C@@](C)(CCC[C@]4(C)C=O)[C@@H]2[C@@H](O)C[C@@H]1[C@H]3O [ISOSCOPARIN I]	4.4	> 10	> 10	> 10	> 10
C=C1C(=O)[C@@]23[C@H](O)C[C@@H]4C(C)(C)CCC[C@@]4(C)[C@@H]2C[C@H](O)[C@@H]1[C@H]3O [ISOSCOPARIN L]	0.7	> 10	6.4	6.8	2.2
C=C1C(=O)[C@@]23[C@H](O)C[C@@H]4C(C)(C)CC[C@H](O)[C@@]4(C)[C@@H]2CC[C@@H]1[C@H]3O [KAMEBANIN]	0.9	> 10	7.3	8.9	8.4
C=C1[C@@H](O)[C@]23[C@H](O)[C@H]1CC[C@H]2[C@@]12CO[C@@]3(O)[C@@H](O)[C@@H]1C(C)(C)CC[C@@H]2OC(C)=O [LASIOKAURINOL]	> 10	> 10	> 10	> 10	> 10
CC(=O)O[C@H]1C(=O)[C@@]2(C)[C@H]([C@H](OC(=O)c3ccccc3)[C@]3(O)C[C@H](OC(=O)[C@H](O)[C@@H](NC(=O)c4ccccc4)c4ccccc4)C(C)=C1C3(C)C)[C@]1(OC(C)=O)CO[C@@H]1C[C@@H]2O [PACLITAXEL]	0.1	0.2	0.1	0.2	0.1
C=C1C(=O)[C@@]23[C@H](O)C[C@@H]4C(C)(C)CCC[C@@]4(C)[C@@H]2C(=O)[C@H](O)[C@@H]1[C@H]3O [PHYLLOSTACHYSIN D]	0.3	> 10	> 10	> 10	> 10
C=C1C(=O)[C@@]23CC[C@@H]4C(C)(C)CC[C@H](O)[C@@]4(C)[C@@H]2[C@@H](O)C[C@@H]1[C@H]3O [PHYLLOSTACHYSIN H]	> 10	> 10	> 10	> 10	> 10
C=C1C(=O)[C@@]23[C@H](O)C[C@@H]4C(C)(C)CC[C@H](O)[C@@]4(C)[C@@H]2[C@@H](O)C[C@@H]1[C@H]3O [RABDOINFLEXIN B]	> 10	> 10	> 10	> 10	> 10
C=C1C(=O)[C@@]23[C@H](O)C[C@@H]4C(C)(C)CCC[C@@]4(C)[C@@H]2[C@@H](O)[C@H](O)[C@@H]1[C@H]3OC(C)=O [RABDOKUNMIN A]	2.7	> 10	2.8	> 10	> 10
C=C1C(=O)[C@@]23[C@H](O)C[C@@H]4[C@@](C)(CO)CCC[C@@]4(C)[C@@H]2C[C@H](O)[C@@H]1[C@H]3O [RABDOKUNMIN C]	> 10	> 10	> 10	> 10	> 10
C=C1C(=O)[C@@]23[C@H](O)C[C@@H]4[C@@](C)(CO)CCC[C@@]4(C)[C@@H]2[C@@H](O)C[C@@H]1[C@H]3O [RABDOKUNMIN D]	> 10	> 10	> 10	> 10	> 10
C=C1C(=O)[C@@]23[C@H](O)C[C@@H]4[C@@](C)(CO)CCC[C@@]4(C)[C@@H]2C(=O)[C@H](O)[C@@H]1[C@H]3O [RABDOLOXIN A]	> 10	> 10	> 10	> 10	> 10
C=C1C(=O)[C@@]23[C@H](O)C[C@@H]4C(C)(C)CCC[C@@]4(C)[C@@H]2[C@@H](O)[C@H](O)[C@@H]1[C@H]3O [RABDOLOXIN B]	2.8	> 10	1.7	> 10	> 10
